Among the data in PubChem BioAssay (NCI) are TGI and GI50 values, retold here.

Test systems include HS 578T breast; NCI/ADR-RES ovarian; MDA-N; KM20L2 colon; XF 498 CNS; DMS 273 small cell lung.
Assay in all cases: NCI anticancer screen, dose series, 48 h

Values joined by “and” are separate entries in the source; they are usually repeats but may differ in a detail not shown here. Identical values can stand only once.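 Dose response: 5 concentrations. Exposure: 48 h. Format: 96-well plates. Endpoint: linear interpolation; highest concentration if not reached. GI50: concentration for 50% inhibition of growth. TGI denotes the concentration required for complete inhibition of growth.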 Some results are limits rather than exact numbers.

For `COC(=O)Oc1nn(C(=O)OC)c(=O)c2ccccc12` (tested in a mixture with another compound), the TGI in the test on HS 578T breast, in the test on NCI/ADR-RES ovarian and in the test with MDA-N was greater than 100 µM throughout.
Consider `Nc1nccc(C#Cc2cncnc2Nc2ccc(OCc3cccc(F)c3)c(Cl)c2)n1`, for which, in the test with HS 578T breast, the GI50 was 6.32 µM and the TGI is 20.5 µM. Moreover, in the test with NCI/ADR-RES ovarian, the GI50 is 6.6 µM and the TGI is greater than 25 µM.
For the compound `CN(C)c1ccc(N=C(C#N)c2nc(N)nc(N3CCOCC3)n2)cc1`, in the test with NCI/ADR-RES ovarian, the GI50 is 27.1 µM and the TGI amounted to 62.8 µM.
As for `CCOC(=O)/C(=C/c1c(-c2ccccc2)[nH]c2ccccc12)C(=O)c1ccc(Cl)cc1`, in the test with HS 578T breast, the GI50 was 3.73 µM and the TGI came out at 57.5 µM. In the test on NCI/ADR-RES ovarian, the GI50 is 2.69 µM and the TGI was greater than 100 µM.
For `CC[C@]12C=CCN3CC[C@]4(C(=C(C(=O)OC)C1)Nc1ccccc14)[C@@H]32`, in the test with HS 578T breast, the GI50 is 2.99 µM and the TGI came out at 17.2 µM. Further, in the test with NCI/ADR-RES ovarian, the GI50 is 6.39 µM and the TGI was 58.1 µM.
Consider `CC(=O)[CH-]C(=O)c1ccccc1.CC(=O)[CH-]C(=O)c1ccccc1.[O-]Cc1cccs1.[O-]Cc1cccs1.[Ti+4]`, for which, in the test with KM20L2 colon, the GI50 is 19.8 µM and the TGI is greater than 100 µM.
In the case of `COc1ccc(C(NCCNC(c2ccc(OC)c(OC)c2)c2cc3c(cc2O)OCO3)c2cc3c(cc2O)OCO3)cc1OC` (centres undefined), the results for the TGI in the test with HS 578T breast, in the test with NCI/ADR-RES ovarian and with MDA-N were greater than 100 µM, 8.27 µM and 3.58 µM, respectively.
Turning to `CC(=O)NNc1nc(C)c(C(/C=C/c2ccc3c(c2)OCO3)=N/NC(=O)c2ccncc2)s1`, the TGI with HS 578T breast, in the test with NCI/ADR-RES ovarian and in the test on MDA-N was greater than 100 µM throughout.
Consider `Cn1cc(-c2ccc3c(c2)ncn3-c2ccc(CC(=O)Nc3cc(C(C)(C)C)on3)cc2)cn1`, for which the GI50 was 0.187 µM with HS 578T breast and 2.23 µM in the test with NCI/ADR-RES ovarian. Also, the TGI in the test on HS 578T breast is 1.46 µM; with NCI/ADR-RES ovarian, greater than 35.1 µM.
In the case of `COC(=O)C12C3C=CC(O3)C1C1C=CC2O1` (centres undefined), the TGI in the test with XF 498 CNS, in the test on DMS 273 small cell lung and in the test with KM20L2 colon was greater than 100 µM throughout.
For the compound `COc1ccc2c(c1)C(=O)/C(=C/c1ccc(OCC(=O)c3ccc(Cl)cc3)cc1)O2`, in the test on HS 578T breast, the GI50 is 22.1 µM and the TGI was 84.6 µM. In the test on NCI/ADR-RES ovarian, the GI50 was 16.3 µM and the TGI stood at 41.8 µM.
On to `Cc1cc(N(CCC#N)CCC#N)ccc1N=Nc1ccc([N+](=O)[O-])cc1`, for which the values for the TGI with DMS 273 small cell lung and in the test with KM20L2 colon were 44.4 µM and greater than 100 µM, respectively.
In the case of `CCN(CC)c1ccc(/C=C/C2=[N+](C)c3ccccc3C2(C)C)cc1`, in the test with HS 578T breast, the GI50 was 0.152 µM and the TGI was 20.9 µM. In the test with NCI/ADR-RES ovarian, the GI50 was 13.9 µM and the TGI was greater than 100 µM.
Take `CCN=C(N)CSS(=O)(=O)O`: the TGI in the test with HS 578T breast, with NCI/ADR-RES ovarian and with MDA-N was greater than 100 µM in each case.
Consider `O=C(/C=C/c1cccnc1)/C=C/c1cccnc1`, for which the GI50 in the test with HS 578T breast was 3.44 µM; with NCI/ADR-RES ovarian, 4.08 µM. Also, the TGI in the test on HS 578T breast was 17.3 µM; with NCI/ADR-RES ovarian it was 30.6 µM.
For `COc1cc(-c2cn(-c3ccc(Cl)cc3)c(=O)n2-c2ccccc2)cc(OC)c1OC` the same measures were greater than 50.5 µM, greater than 92.9 µM, 97.1 µM and greater than 100 µM.
As to `CCN1C(=O)N(CC)C2C1NN=c1s/c(=C\c3ccc([N+](=O)[O-])cc3)c(=O)n12` (centres undefined), in the test with HS 578T breast, the GI50 was 0.328 µM and the TGI was greater than 72.5 µM. Further, in the test with NCI/ADR-RES ovarian, the GI50 was 0.396 µM and the TGI is greater than 45.2 µM.
Turning to `Cn1cc(-c2nonc2-c2cn(C)c3ccc(Br)cc23)c2ccccc21`, in the test with NCI/ADR-RES ovarian, the GI50 is 3.19 µM and the TGI was greater than 100 µM.
Take `COC(=O)C1(C)CCc2c(ccc3ccccc23)C1=O` (centres undefined): the TGI in the test on HS 578T breast is greater than 100 µM; in the test with NCI/ADR-RES ovarian, greater than 100 µM; with MDA-N it was 76.5 µM.
For `Fc1cccc(C=NC23CC4CC(CC(C4)C2)C3)c1`, the TGI with XF 498 CNS, in the test on DMS 273 small cell lung and in the test with KM20L2 colon was greater than 100 µM each time.
Turning to `CC1OC(OC2C(OC3CCC4(C)C(CCC5(C)C4CC=C4C6CC(C)(C)CCC6(CO)C(O)CC45C)C3(C)C)OC(C(=O)O)C(OC3OC(COC4OC(CO)C(O)C(O)C4O)C(O)C(O)C3O)C2O)C(O)C(O)C1O` (centres undefined), in the test on HS 578T breast, the GI50 is 13.1 µM and the TGI is 34.6 µM. Moreover, in the test on NCI/ADR-RES ovarian, the GI50 was 11.5 µM and the TGI worked out at 23.6 µM.
For `COc1cc(-c2[nH]ncc2CCCC(=O)Nc2ccccc2[N+](=O)[O-])ccc1O`, the TGI in the test on XF 498 CNS and in the test with DMS 273 small cell lung was greater than 100 µM each time.
Turning to `CCOc1ccc(NC(=O)/C(=C/c2ccccc2)C(C)=O)cc1`, the TGI in the test on XF 498 CNS was determined as 28.9 µM; in the test on DMS 273 small cell lung, 43.2 µM; in the test with KM20L2 colon, 32.5 µM.
As to `Oc1ccc(-c2nc(-c3ccc(F)cc3)c(-c3ccncc3)[nH]2)cc1`, in the test on NCI/ADR-RES ovarian, the GI50 was 35.6 µM and the TGI was greater than 100 µM.
Take `Cn1cccc1C1CC(=O)N(CCC[Se]C#N)C1=O` (centres undefined): in the test with HS 578T breast, the GI50 is 2.44 µM and the TGI came out at 7.33 µM. For the same compound, in the test on NCI/ADR-RES ovarian, the GI50 is 2.69 µM and the TGI was 7.85 µM.
Consider `O=[N+]([O-])c1ccc([I+]c2ccccc2)cc1`, for which the GI50 is 2 µM in the test on HS 578T breast and 2.25 µM in the test with NCI/ADR-RES ovarian. Moreover, the TGI in the test with HS 578T breast was 13.5 µM and 5.85 µM; in the test on NCI/ADR-RES ovarian, > 29.1 µM and 6.92 µM; in the test with MDA-N it was 20.9 µM.
With `C=C1CCC2C3(C)COC(c4cccc(Cl)c4)OC3CCC2(C)C1/C=C/C1=CCOC1=O` (centres undefined), in the test with HS 578T breast, the GI50 is 7.42 µM and the TGI was greater than 100 µM. In the test with NCI/ADR-RES ovarian, the GI50 was 6.06 µM and the TGI was greater than 100 µM.
In the test on DMS 273 small cell lung, `COc1ccccc1NS(=O)(=O)c1cc(C(C)(C)C)ccc1OCCOc1ccc(C(C)(C)C)cc1S(=O)(=O)Nc1ccccc1OC` showed a TGI greater than 100 µM.
`O=[N+]([O-])c1ccc(N=Nc2c(O)[nH]c3ccc(Br)cc23)c([N+](=O)[O-])c1` yielded a TGI in the test on KM20L2 colon of 13.4 µM.
On to `CC(=O)C(CN1CCOCC1)C(c1ccccc1)c1c(O)c2ccccc2oc1=O` (centres undefined), for which the TGI in the test with HS 578T breast, with NCI/ADR-RES ovarian and in the test on MDA-N was greater than 100 µM throughout.
